Data set [1] deals with rats. The data set can be described thus: Monitoring of volatile degradation products exhaled by a dosed rat (uptake desiccator jar chamber). The class given is in vivo. Here is the method: Additional biological testing of C7F15 CF(CF3)COO^- NH4^+ in rats was conducted using the following test apparatus. An uptake desiccator jar chamber was designed with top and bottom portions, the top portion equipped with an inlet port, an outlet port, oxygen monitor and pressure gage. An oxygen gas tank supplied oxygen into the inlet port, and the oxygen level in the chamber was maintained at a normal ambient level as measured by the oxygen monitor and pressure gage. The outlet port was connected in series with a carbon dioxide scrubber and particulate filter, which in turn was connected to a loop containing a stainless steel bellows pump operating at about 2 L/min. Most of the gas in the loop was recycled into the inlet port, but about 100 mL/min was directed through a secondary loop to a gas chromatograph equipped with a 0.5 mL gas sampling loop.
A rat dosed at 500 mg/kg was placed in the bottom portion of the chamber, the top portion was attached, and the assembled chamber was placed in an ice-filled pan to allow for the condensation of water. The oxygen flow was started, and the exhaust gases were monitored for the presence of CF3 CF=CF(C6 F13) and C7 F15 CFHCF3, aqueous degradation products of C7 F15 CF(CF3)COOH, using known standards of this olefin and hydride in the gas chromatograph. […] After 24 minutes, one slight chromatographic peak was noted, corresponding to the monohydride. After 92 minutes, the peak became noticeably larger and a second peak formed, corresponding to the olefin.

The test system of data set [2] is rats. In words: Acute LD50, one-time feeding study of rats. Type of data set: in vivo, rat. The conditions noted are these: one-time feeding, rats. Here is the method:
Acute LD50 measurements for a one-time feeding study of rats were determined over a 21 day period for both the a-branched perfluorocarboxylate salt, C7 F15 CF(CF3)COO^- NH4^+, and its straight chain isomer, CF3 (CF2)8 COO^- NH4^+.

Data set [3] is described as follows: Surface tension and critical micelle concentration (CMC) of aqueous surfactant solutions. The class given is physicochemical. Conditions: Table 5; deionized water, at CMC.
Description: Critical Micelle Concentration (CMC): The critical micelle concentration is defined as the concentration at which further surface tension is no longer lowered with increasing levels of surfactant. […] Surface tension is then plotted vs. log concentration and the data points are connected. The resulting curve has a nearly horizontal flat portion at concentrations above the CMC and has a negative steep slope at concentrations below the CMC. The CMC is defined as the lowest surfactant concentration in the horizontal flat portion of the curve.
(§1) Then the critical micelle concentration (CMC) was determined for each surfactant.
as §1

The nature of data set [4]: Thermogravimetric analysis of neat perfluorocarboxylate salts. The class given is physicochemical. The conditions noted are these: neat salt, 10° C./min, nitrogen. From the text:
Thermal degradation measurements were made on a series of neat perfluorocarboxylate salts, including several ax-branched open chain structures (Examples N2-N9), a primarily linear open chain structure (Example N10--Fluorad™ FC-143 Fluorochemical Surfactant, commercially available from 3M Company, St. Paul, Minn.), and a closed chain (i.e., cyclic) structure (Example N11--made by the electrochemical fluorination of benzoic acid and hydrolysis in the presence of KOH, as described in U.S. Pat. No. 2,567,011 (Diesslin et al.)).
The perfluorocarboxylate salts were tested using a Perkin-Elmer TGA 7 thermogravimetric analysis apparatus and a salt sample size of approximately 5 mg, a heating rate of 10° C./min, and a nitrogen gas flow rate of 40-45 mL/min. Using the TGA 7 software, the following temperatures were recorded: (1) the onset temperature of decomposition, (2) the temperature at which 50% of the sample weight was lost, and (3) the temperature at which 90% of the sample weight was lost.

A short description of data set [5]: Emulsion polymerization of hexafluoropropylene and vinylidene fluoride with surfactant as emulsifier. The conditions noted are these: 3500 ppm emulsifier, 78° C. From the text: The following procedure was used to evaluate C7 F15 CF(CF3)COO^- NH4^+ (from Ex. M1) as an emulsifier to copolymerize hexafluoropropylene (HFP) and vinylidene fluoride.
A 1 gallon, vertically agitated stainless steel reactor with pressure and temperature controls was evacuated and twice purged with nitrogen. Using an isolated vacuum, a solution comprised of 2 g of ammonium persulfate (initiator) and 6 g of dipotassium phosphate dissolved in 2800 g of deionized water was introduced into the reactor. The remaining vacuum on the reactor was vented with nitrogen, and the solution was degassed twice under agitation using alternate vacuum and nitrogen purges. […]
The resulting latex polymer was drained from the reactor, and percent solids of the latex was determined to be 25% by weight as measured by drying 10 g of latex in a forced air oven for 16 hours at 105° C.
The reactor body was separated from the reactor head, and a visual inspection of the reactor was made to determine the amount of coagulated polymer in the reactor (the amount should be minimal in a good polymerization reaction). A qualitative rating was assessed, ranging from "none" to "little" to "some." […]
Particle size in the latex was determined using […] on a Coulter sub-micron particle size analyzer. […]

Entries after “also recorded” stand apart in the source; their conditions may differ.

For the compound `O=C(O)C(F)(C(F)(F)F)C(F)(F)C(F)(F)C(F)(F)C(F)(F)C(F)(F)C(F)(F)C(F)(F)F` (stereo not drawn) [Example M14, C7 F15 CF(CF3)COO^- H4 N^+], in the data set with rats [1] (rat dosed at 500 mg/kg), the “post-exposure toxicity (death) or wasting syndrome” value is recorded as “no evidence of toxicity (death) or evidence of wasting syndrome”, the “time at which monohydride peak was noted in exhaust gases” value is 24 min and the “time at which second peak (olefin) formed in exhaust gases” value was found to be 92 min. For the same compound, the “monohydride and olefin peaks in exhaust gases after 217 minutes” value in the data set with rats [1] (rat dosed at 500 mg/kg, 217 minutes) is listed as “both peaks became significantly larger”. Moreover, the “olefin or hydride in exhaust gases, initially” value with rats [1] (rat dosed at 500 mg/kg, initially) was “no olefin or hydride were detected”. Further, in the data set with rats [1] (rat, in words), the metabolism and elimination result was “metabolized by the rat to volatile metabolites which were eliminated from the rat via transpiration”. In addition, in the data set on rats [2], the “time after which rats began regaining weight” value stood at 3 days, the “time of deaths from toxic doses” value lay in the range of 2 to 3 days and the wasting syndrome entry is recorded as “No wasting syndrome was noted”. The “acute toxicity (in words)” value in the data set on rats [2] (listed as C7 F15 CF(CF3)COO^- NH4^+) is “relatively low toxicity; also recorded: only slightly toxic”. For the same compound, in data set [3], the “Surf. Tens. (surface tension at the CMC)” value was determined as 16.5 dynes/cm. Further, in data set [4], the “onset temperature of decomposition” value stood at 151 °C, the “temperature for 50% loss” value stood at 163 °C and the “temperature for 90% loss” value was found to be 174 °C. The “Latex Stability” value in data set [5] turned out to be 0.

For the origin of these results see patent publication US6015838A, “Aqueous film-forming foam compositions” (3M Innovative Properties Company, priority 1996, dated 2000).
